ChEMBL document CHEMBL4382235, “Design, synthesis and biological evaluation of novel 1-phenyl phenanthridin-6(5H)-one derivatives as anti-tumor agents targeting TOPK” (Eur J Med Chem, 2019)

Test system: not listed separately
Assay: Tmax in Sprague-Dawley rat at 15 mg/kg, po by LC-MS/MS analysis
Assay type: ADME, organism-based
Settings: in vivo

SMILES	Tmax
Cc1cc(O)c(-c2ccc([C@@H](C)CN)cc2)c2c1[nH]c(=O)c1c(O)cccc12	6.67 h

Test system: not listed separately
Assay: Cmax in Sprague-Dawley rat at 15 mg/kg, po by LC-MS/MS analysis
Assay type: ADME, organism-based
Set-up: dose 15 mg/kg, route oral
Settings: in vivo

SMILES	Cmax
Cc1cc(O)c(-c2ccc([C@@H](C)CN)cc2)c2c1[nH]c(=O)c1c(O)cccc12	251 ng/mL

Test system: HCT-15
Assay: cells
Settings: Homo sapiens, HCT-15, 72 h
Description: Antiproliferative activity against human HCT15 cells after 72 hrs by MTT assay

SMILES	IC50
C[C@H](c1ccc(-c2c(O)cc(Cl)c3[nH]c(=O)c4ccccc4c23)cc1)N(C)C	> 1000 nM
C[C@@H](N)c1ccc(-c2c(O)cc(Cl)c3[nH]c(=O)c4ccccc4c23)cc1	801 nM
Cc1cc(O)c(-c2ccc([C@@H](C)N(C)C)cc2)c2c1[nH]c(=O)c1c(C)cccc12	397 nM
Cc1cc(O)c(-c2ccc([C@@H](C)CN(C)C)cc2)c2c1[nH]c(=O)c1ccccc12	600 nM
Cc1cc(O)c(-c2ccc([C@@H](C)CN)cc2)c2c1[nH]c(=O)c1ccccc12	365 nM
Cc1ccc2c(=O)[nH]c3c(C)cc(O)c(-c4ccc([C@@H](C)CN)cc4)c3c2c1	327 nM

Stronger by IC50, values ahead:

IC50	SMILES
257 nM	Cc1cc(O)c(-c2ccc([C@@H](C)N)cc2)c2c1[nH]c(=O)c1sccc12
73.1 nM	Cc1cc(O)c(-c2ccc([C@@H](C)CN(C)C)cc2)c2c1[nH]c(=O)c1sccc12
31.4 nM	Cc1cc(O)c(-c2ccc([C@@H](C)CN)cc2)c2c1[nH]c(=O)c1c(O)cccc12
217 nM	Cc1ccc2c(=O)[nH]c3c(C)cc(O)c(-c4ccc([C@@H](C)N)cc4)c3c2c1

Test system: not listed separately
Assay: AUC (0 to 24 hrs) in Sprague-Dawley rat at 15 mg/kg, po by LC-MS/MS analysis
Assay type: ADME, organism-based
Set-up: dose 15 mg/kg, time < 24 hr, route oral
Settings: in vivo

SMILES	AUC(0-t) at 24 h
Cc1cc(O)c(-c2ccc([C@@H](C)CN)cc2)c2c1[nH]c(=O)c1c(O)cccc12	4230 ng·h/mL

Test system: A549
Assay: cells
Settings: Homo sapiens, A549, 72 h
Description: Antiproliferative activity against human A549 cells after 72 hrs by MTT assay

SMILES	IC50
C[C@H](c1ccc(-c2c(O)cc(Cl)c3[nH]c(=O)c4ccccc4c23)cc1)N(C)C	> 1000 nM
C[C@@H](N)c1ccc(-c2c(O)cc(Cl)c3[nH]c(=O)c4ccccc4c23)cc1	600 nM
Cc1cc(O)c(-c2ccc([C@@H](C)N(C)C)cc2)c2c1[nH]c(=O)c1c(C)cccc12	470 nM
Cc1cc(O)c(-c2ccc([C@@H](C)CN(C)C)cc2)c2c1[nH]c(=O)c1ccccc12	264 nM
Cc1cc(O)c(-c2ccc([C@@H](C)CN)cc2)c2c1[nH]c(=O)c1ccccc12	78.7 nM
Cc1ccc2c(=O)[nH]c3c(C)cc(O)c(-c4ccc([C@@H](C)CN)cc4)c3c2c1	60.3 nM

Results, then the compound that gave them:

IC50	SMILES
360 nM	Cc1cc(O)c(-c2ccc([C@@H](C)N)cc2)c2c1[nH]c(=O)c1sccc12
20.4 nM	Cc1cc(O)c(-c2ccc([C@@H](C)CN(C)C)cc2)c2c1[nH]c(=O)c1sccc12
5.41 nM	Cc1cc(O)c(-c2ccc([C@@H](C)CN)cc2)c2c1[nH]c(=O)c1c(O)cccc12
120 nM	Cc1ccc2c(=O)[nH]c3c(C)cc(O)c(-c4ccc([C@@H](C)N)cc4)c3c2c1

Test system: HCT-15
Assay: animal or person
Settings: Mus musculus, HCT-15, po, read-out: TGI

SMILES	inhibition in vivo at 10 mg/kg
Cc1cc(O)c(-c2ccc([C@@H](C)CN)cc2)c2c1[nH]c(=O)c1c(O)cccc12	42.1%

Test system: HCT-116
Assay: animal or person
Settings: Mus musculus, HCT-116, po, read-out: TGI

SMILES	inhibition in vivo at 10 mg/kg
Cc1cc(O)c(-c2ccc([C@@H](C)CN)cc2)c2c1[nH]c(=O)c1c(O)cccc12	53.7%

Test system: SW-620
Assay: animal or person
Settings: Mus musculus, SW-620, po, read-out: TGI

SMILES	inhibition in vivo at 15 mg/kg
Cc1cc(O)c(-c2ccc([C@@H](C)CN)cc2)c2c1[nH]c(=O)c1c(O)cccc12	79.7%

Test system: not listed separately
Assay: Volume of distribution at steady state in Sprague-Dawley rat at 2 mg/kg, iv by LC-MS/MS analysis
Assay type: ADME, organism-based
Settings: in vivo

SMILES	Vdss
Cc1cc(O)c(-c2ccc([C@@H](C)CN)cc2)c2c1[nH]c(=O)c1c(O)cccc12	20.25 L/kg

Test system: HCT-15
Assay: animal or person
Settings: Mus musculus, HCT-15, po, read-out: TGI
Remark: another data set of the same source

SMILES	inhibition in vivo at 15 mg/kg
Cc1cc(O)c(-c2ccc([C@@H](C)CN)cc2)c2c1[nH]c(=O)c1c(O)cccc12	78.8%

Test system: not listed separately
Assay: Tmax in Sprague-Dawley rat at 2 mg/kg, iv by LC-MS/MS analysis
Assay type: ADME, organism-based
Settings: in vivo

SMILES	Tmax
Cc1cc(O)c(-c2ccc([C@@H](C)CN)cc2)c2c1[nH]c(=O)c1c(O)cccc12	4.8 min

Test system: not listed separately
Assay: Toxicity in nude mouse xenografted with human SW620 cells assessed as body weight loss at 10 to 15 mg/kg, qd administered via gavage for 3 weeks
Assay type: organism-based
Settings: in vivo, po, 504 h

SMILES	Activity
Cc1cc(O)c(-c2ccc([C@@H](C)CN)cc2)c2c1[nH]c(=O)c1c(O)cccc12	Non-Toxic

Test system: not listed separately
Assay: Oral bioavailability in Sprague-Dawley rat at 15 mg/kg by LC-MS/MS analysis
Assay type: ADME, organism-based
Settings: in vivo

SMILES	bioavailability
Cc1cc(O)c(-c2ccc([C@@H](C)CN)cc2)c2c1[nH]c(=O)c1c(O)cccc12	100%

Test system: not listed separately
Assay: AUC (0 to t) in Sprague-Dawley rat at 2 mg/kg, iv by LC-MS/MS analysis
Assay type: ADME, organism-based
Settings: in vivo

SMILES	AUC(0-t)
Cc1cc(O)c(-c2ccc([C@@H](C)CN)cc2)c2c1[nH]c(=O)c1c(O)cccc12	564 ng·h/mL

Test system: HCT-116
Assay: animal or person
Settings: Mus musculus, HCT-116, po, read-out: TGI
Remark: another data set of the same source

SMILES	inhibition in vivo at 15 mg/kg
Cc1cc(O)c(-c2ccc([C@@H](C)CN(C)C)cc2)c2c1[nH]c(=O)c1sccc12	49.4%
Cc1cc(O)c(-c2ccc([C@@H](C)CN)cc2)c2c1[nH]c(=O)c1c(O)cccc12	75.8%

Test system: not listed separately
Assay: MRT (0 to t) in Sprague-Dawley rat at 15 mg/kg, po by LC-MS/MS analysis
Assay type: ADME, organism-based
Settings: in vivo

SMILES	MRT last
Cc1cc(O)c(-c2ccc([C@@H](C)CN)cc2)c2c1[nH]c(=O)c1c(O)cccc12	10.5 h

Test system: not listed separately
Assay: Clearance in Sprague-Dawley rat at 2 mg/kg, iv by LC-MS/MS analysis
Assay type: ADME, organism-based
Settings: in vivo

SMILES	CL
Cc1cc(O)c(-c2ccc([C@@H](C)CN)cc2)c2c1[nH]c(=O)c1c(O)cccc12	33.9532 mL/min/kg

Test system: SW-620
Assay: animal or person
Settings: Mus musculus, SW-620, po, read-out: TGI
Remark: another data set of the same source

SMILES	inhibition in vivo at 10 mg/kg
Cc1cc(O)c(-c2ccc([C@@H](C)CN)cc2)c2c1[nH]c(=O)c1c(O)cccc12	72.1%

Test system: HCT-116
Assay: cells
Settings: Homo sapiens, HCT-116, 72 h
Description: Antiproliferative activity against human HCT116 cells after 72 hrs by MTT assay

SMILES	IC50
C[C@H](c1ccc(-c2c(O)cc(Cl)c3[nH]c(=O)c4ccccc4c23)cc1)N(C)C	> 1000 nM
C[C@@H](N)c1ccc(-c2c(O)cc(Cl)c3[nH]c(=O)c4ccccc4c23)cc1	> 1000 nM
Cc1cc(O)c(-c2ccc([C@@H](C)N(C)C)cc2)c2c1[nH]c(=O)c1c(C)cccc12	469 nM
Cc1cc(O)c(-c2ccc([C@@H](C)CN(C)C)cc2)c2c1[nH]c(=O)c1ccccc12	299 nM
Cc1cc(O)c(-c2ccc([C@@H](C)CN)cc2)c2c1[nH]c(=O)c1ccccc12	114 nM
Cc1ccc2c(=O)[nH]c3c(C)cc(O)c(-c4ccc([C@@H](C)CN)cc4)c3c2c1	156 nM

The remaining lines, values ahead:

IC50	SMILES
468 nM	Cc1cc(O)c(-c2ccc([C@@H](C)N)cc2)c2c1[nH]c(=O)c1sccc12
45 nM	Cc1cc(O)c(-c2ccc([C@@H](C)CN(C)C)cc2)c2c1[nH]c(=O)c1sccc12
7.87 nM	Cc1cc(O)c(-c2ccc([C@@H](C)CN)cc2)c2c1[nH]c(=O)c1c(O)cccc12
385 nM	Cc1ccc2c(=O)[nH]c3c(C)cc(O)c(-c4ccc([C@@H](C)N)cc4)c3c2c1

Test system: not listed separately
Assay: Cmax in Sprague-Dawley rat at 2 mg/kg, iv by LC-MS/MS analysis
Assay type: ADME, organism-based
Set-up: dose 2 mg/kg, route intravenous
Settings: in vivo

SMILES	Cmax
Cc1cc(O)c(-c2ccc([C@@H](C)CN)cc2)c2c1[nH]c(=O)c1c(O)cccc12	188 ng/mL

Test system: not listed separately
Assay: Toxicity in nude mouse xenografted with human HCT116 cells assessed as body weight loss at 10 to 15 mg/kg, qd administered via gavage for 3 weeks
Assay type: organism-based
Settings: in vivo, po, 504 h

SMILES	Activity
Cc1cc(O)c(-c2ccc([C@@H](C)CN)cc2)c2c1[nH]c(=O)c1c(O)cccc12	Non-Toxic

Test system: not listed separately
Assay: Half life in Sprague-Dawley rat at 2 mg/kg, iv by LC-MS/MS analysis
Assay type: ADME, organism-based
Settings: in vivo

SMILES	half-life
Cc1cc(O)c(-c2ccc([C@@H](C)CN)cc2)c2c1[nH]c(=O)c1c(O)cccc12	7.02 h

Test system: not listed separately
Assay: MRT (0 to t) in Sprague-Dawley rat at 2 mg/kg, iv by LC-MS/MS analysis
Assay type: ADME, organism-based
Settings: in vivo

SMILES	MRT(t)
Cc1cc(O)c(-c2ccc([C@@H](C)CN)cc2)c2c1[nH]c(=O)c1c(O)cccc12	3.24 h

Test system: not listed separately
Assay: Toxicity in nude mouse xenografted with human HCT15 cells assessed as body weight loss at 10 to 15 mg/kg, qd administered via gavage for 3 weeks
Assay type: organism-based
Settings: in vivo, po, 504 h

SMILES	Activity
Cc1cc(O)c(-c2ccc([C@@H](C)CN)cc2)c2c1[nH]c(=O)c1c(O)cccc12	Non-Toxic
